In paper PMC2063170, “A phase I clinical and pharmacokinetic study of the new topoisomerase inhibitor GI147211 given as a 72-h continuous infusion” (British Journal of Cancer, 1998):
Values joined by “and” are separate entries in the source; they are usually repeats but may differ in a detail not shown here. Equal entries are not always repeated.

Legend:
[1] = Phase I pharmacokinetics, 72-h continuous infusion, whole-blood and urine HPLC
Excerpt: Brrtish Joumal of Cancer(1998) 78(10). 1329-1336 @ 1998 Cancer Research Campaign A phase I clinical and pharmacokinetic study of the new topoisomerase inhibitor G1147211 given as a 72-h continuous infusion L Paz-Aresl*, R Kunkal 2, D DeMarial-3, J Cassidy' 4, M Alden3, P Beranek2, S Kaye', D Littlefield2, D Reilly3, S Depee2, P Wissel2, C Twelves' and P O'Dwyer3 CRC Department of Medical Oncology. University of Glasgow. Westem Infirmary Hospital. Glasgow Gll 6NT. UK; 2Glaxo Wellcome Research. Five Moore Drive. Research Triangle Park. NC 27709. USA; 'Fox Chase Cancer Center. 7701 Burholme Avenue. Philadelphia, PA 19111. USA: 4Thomas Jefferson University. Kimmel Cancer Institute. Bluemle Life Sciences Building. 233 S. 10th Street. Suite 502. Philadelphia. PA 19107. […] This study was designed to determine the maximum tolerated dose of Gl147211 as a 72-h infusion and to describe its pharmacokinetics and pharmacodynamics on this schedule. In a single-arm, rising-dose study in patients with advanced cancer, eight cohorts of three or more patients received 72-h infusions of G1147211 at doses ranging from 0.25 to 2.5 mg m-2 day-'. […] Whole-blood G1147211 lactone, total blood and total concentrations were measured during and over the 12 h following the infusion. […] Extensive phase 11 evaluation of this compound and further phase I trials evaluating more prolonged infusions are ongoing. Keywords: G1147211: GG211: camptothecin analogues: topoisomerase I inhibitor; phase I trial; pharmacokinetics: pharmacodynamics: continuous infusion GI 147211 (7-4 methyl piperazinomethilene)- 10.1 1 -ethylenedioxy - 20-(S camptothecin: Figure 1) is a totally synthetic analogue of camptothecin. a natural product isolated from Camptotheca acuminata (WAall et al. 1966: Emerson et al. 1995). […] The nuclear enzyvme DNA topoisomerase I. x hich relaxes DNA supercoils arising during, replication and gene tran- scription. has been identified as the specific targret of camptothecin (Hsianer and Liu. 1988: Wall and Wani. 1995).

[2] = test system: neutrophils and platelets; assay: Pharmacodynamics: sigmoid Emax (Hill) fit of % decrease in neutrophils or platelets vs lactone Css; type: in vivo, patients; conditions: sigmoid Emax model
Excerpt: (§1) Brrtish Joumal of Cancer(1998) 78(10). 1329-1336 @ 1998 Cancer Research Campaign A phase I clinical and pharmacokinetic study of the new topoisomerase inhibitor G1147211 given as a 72-h continuous infusion L Paz-Aresl*, R Kunkal 2, D DeMarial-3, J Cassidy' 4, M Alden3, P Beranek2, S Kaye', D Littlefield2, D Reilly3, S Depee2, P Wissel2, C Twelves' and P O'Dwyer3 CRC Department of Medical Oncology. University of Glasgow. Westem Infirmary Hospital. Glasgow Gll 6NT. UK; 2Glaxo Wellcome Research. Five Moore Drive. Research Triangle Park. NC 27709. USA; 'Fox Chase Cancer Center. 7701 Burholme Avenue. Philadelphia, PA 19111. USA: 4Thomas Jefferson University. Kimmel Cancer Institute. Bluemle Life Sciences Building. 233 S. 10th Street. Suite 502. Philadelphia. PA 19107. […] This study was designed to determine the maximum tolerated dose of Gl147211 as a 72-h infusion and to describe its pharmacokinetics and pharmacodynamics on this schedule. In a single-arm, rising-dose study in patients with advanced cancer, eight cohorts of three or more patients received 72-h infusions of G1147211 at doses ranging from 0.25 to 2.5 mg m-2 day-'. […] Whole-blood G1147211 lactone, total blood and total concentrations were measured during and over the 12 h following the infusion. […] Extensive phase 11 evaluation of this compound and further phase I trials evaluating more prolonged infusions are ongoing. […]

[3] = Initial stability studies of infusion solution; type: physicochemical; conditions: 5% dextrose (average pH 5)
Excerpt: as §1

[4] = test system: colon (HT29 and SW480), breast (MX 1), ovarian (SKOV3), prostate (PC3) and lung (H460) carcinoma xenografts; parameters: method as in Emerson et al. 1986. 1993. 1994. 1995; conditions: nude mice; ref Emerson et al. 1986. 1993. 1994. 1995; cited from earlier work

In the case of `CC[C@@]1(O)C(=O)OCc2c1cc1n(c2=O)Cc2c-1nc1cc3c(cc1c2CN1CCN(C)CC1)OCCO3` [GI147211, 7-4 methyl piperazinomethilene)-10.1 1-ethylenedioxy - 20-(S camptothecin], the Css ([1]; at doses of 1.2 mg m-2 day-1 and above) is reported as over 1 ng/mL, the “Clearance, average” value ([1]; human, in vivo) is reported as 1074 ml min-1 m-2 and the “Mean clearance values, range over the dose range” value ([1]; human, in vivo) is reported as 776-1554 ml min-1 m-2. The “Mean terminal elimination half-life” value ([1]; human, in vivo) was 7.5 h, the “Renal clearance, average” value ([1]; human, in vivo) was 164 ml min- and the “Clearance, mean” value ([1]; human, in vivo, 0.25 mg) was 776 ml min-1 m-2. The “Clearance, mean” value ([1]; human, in vivo, 0.5 mg) was 864 ml min-1 m-2, the “Clearance, mean” value ([1]; human, in vivo, 1 mg) was 826 ml min-1 m-2 and the “Half-life, mean” value ([1]; human, in vivo, 1 mg) was 7.9 h. The “Clearance, mean” value ([1]; human, in vivo, 1.2 mg) was 1279 ml min-1 m-2, the “Half-life, mean” value ([1]; human, in vivo, 1.2 mg) was 6.1 h and the “Clearance, mean” value ([1]; human, in vivo, 1.5 mg) was 1046 ml min-1 m-2. For the same compound, the “Half-life, mean” value ([1]; human, in vivo, 1.5 mg) was 7.4 h, the “Clearance, mean” value ([1]; human, in vivo, 2 mg) was 1290 ml min-1 m-2 and the “Half-life, mean” value ([1]; human, in vivo, 2 mg) was 7.2 h. The “Clearance, mean” value ([1]; human, in vivo, 2.5 mg) was 1554 ml min-1 m-2, the “Half-life, mean” value ([1]; human, in vivo, 2.5 mg) was 8.5 h and the “Total drug recovered unaltered in urine” value ([1]; in vivo) was about 11%. The “Variation in Css with dose level” value ([1]; in vivo) was “two- to threefold”, the “Clearance, mean” value ([1]; lactone, 1.75 mg m-2 day-1, n=3) was 1138 ml min-1 m-2 and the “Css, mean” value ([1]; lactone, whole blood, 0.25 mg m-2 day-1, n=6) was 0.25 ng/mL. The “Css, mean” value ([1]; lactone, whole blood, 1.0 mg m-2 day-1, n=5) was 0.86 ng/mL, the “Css, mean” value ([1]; lactone, whole blood, 1.2 mg m-2 day-1, n=3) was 0.74 ng/mL and the “Css, mean” value ([1]; lactone, whole blood, 1.5 mg m-2 day-1, n=10) was 1.09 ng/mL. The “Css, mean” value ([1]; lactone, whole blood, 1.75 mg m-2 day-1, n=3) was 1.10 ng/mL, the “Css, mean” value ([1]; lactone, whole blood, 2.0 mg m-2 day-1, n=11) was 1.09 ng/mL and the “Css, mean” value ([1]; lactone, whole blood, 2.5 mg m-2 day-1, n=2) was 1.21 ng/mL. The “Mean fraction of drug excreted unchanged in the urine (fe)” value ([1]; total drug in urine, 15 subjects) was 0.114, the “Total blood concentrations (lactone plus carboxylate) relative to lactone concentrations” value ([1]; whole blood) was “approximately four” and the “EC50, half-maximal concentration (lactone Css) for % decrease in neutrophils (ANC)” value [2] was 0.75 ng/mL and 0.750 ng/mL. The “EC50, half-maximal concentration (lactone Css) for % decrease in platelets” value [2] was 1.141 ng/mL, the “Stability as a concentrate or as a more dilute solution” value [3] was “stable” and the “Anti-tumour activity in xenografts” value [4] was “confirmed the anti-tumour actixitv”.
